This is an account of results in US20260297542A1, “HERBICIDE RESISTANT PLANTS” (SYNGENTA CROP PROTECTION AG, priority 2023, published 2026).

In test [1] the target is T1, His-TEV-AtPP01 ΔcTP (SEQ ID NO: 370) (Arabidopsis thaliana, UniProt P55826).
T1 construct: with cTPs removed; made in house; host or cells: E. coli BL21 (DE3), His GraviTrap, partially purified
T1 sequence (P55826 with tags, fused parts or gaps): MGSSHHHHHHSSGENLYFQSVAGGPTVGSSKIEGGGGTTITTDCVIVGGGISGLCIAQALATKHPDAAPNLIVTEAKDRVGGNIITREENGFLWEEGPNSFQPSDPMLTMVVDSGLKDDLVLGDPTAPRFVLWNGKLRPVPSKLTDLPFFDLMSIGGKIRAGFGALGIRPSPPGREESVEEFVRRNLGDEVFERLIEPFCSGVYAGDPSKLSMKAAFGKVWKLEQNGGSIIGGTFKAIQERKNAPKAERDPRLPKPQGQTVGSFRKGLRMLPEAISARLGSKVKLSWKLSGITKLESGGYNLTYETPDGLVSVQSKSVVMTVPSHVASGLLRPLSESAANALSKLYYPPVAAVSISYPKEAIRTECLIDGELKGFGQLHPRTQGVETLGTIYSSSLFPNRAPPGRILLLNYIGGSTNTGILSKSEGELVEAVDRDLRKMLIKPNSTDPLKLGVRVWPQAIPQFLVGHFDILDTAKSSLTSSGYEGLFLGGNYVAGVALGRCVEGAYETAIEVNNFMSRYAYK
Put plainly: activity rate of PPO variant in in vitro assay. In kind it is biochemical. Particulars: role: substrate; 1 uM protoporphyrinogen IX; no inhibitor. The text has this:
(§1) A pET24 plasmid containing a DNA sequence encoding variants of AtPPO1 derived from Arabidopsis thaliana with cTPs removed and both a 6×His tag and TEV protease cleavage tag added at the N-terminus, codon-optimised for expression in E. coli, and under control of a T7 promoter, was synthesised by Twist Bioscience. The following variants were synthesised: WT AtPPO1 (SEQ ID NO: 370), AtPPO1 L479M (SEQ ID NO: 371), AtPPO1 L479N (SEQ ID NO: 372), AtPPO1 S305L Y426V (SEQ ID NO: 374) and AtPPO1 S305L Y426V L479M (SEQ ID NO: 373). This plasmid was expressed in E. coli BL21 (DE3) with 50 μg/mL kanamycin selection. 10 mL of overnight cultures grown at 37° C. were used to inoculate 1 L AIM (AIM-Terrific Broth Base including Trace elements, Formedium) in 2 L shake flasks. Cultures were grown at 37° C., 200 rpm for 3 hours and then overnight at 26° C. Cells were harvested centrifugation. 5-15 g of cell pellet was lysed in and resuspended in ratio of 1:1.5 in lysis buffer (20 mM Tris pH8, 500 mM sodium chloride, 10% glycerol, 1× complete Protease EDTA-free Inhibitor Tablet (Roche), 10 mM imidazole). The resuspension was sonicated at 75% using 10 cycles of 30 seconds, 40 seconds off. After sonication Triton X-100 was added to the lysates at a final concentration of 0.5%. The lysates were centrifuged at 20,000 rpm for 25 min at 4° C. Cleared lysates were loaded on His GraviTrap (Cytiva) columns, washed with 20 mL of lysis buffer and eluted in elution buffer (20 mM Tris pH8, 500 mM sodium chloride, 10% glycerol, 200 mM imidazole, 0.03% (v/v) Triton X-100). The eluate was desalted on a PD10 column and 2.5-3.2 mL was collected. Protein concentration was measured and calculated using the absorbance at 280 nm. Extracts were diluted 1 in 4 and 10 uL was analysed by SDS PAGE.
(§2) Partially purified Protoporphyrinogen Oxidase enzymes were assayed for activity using fluorescence adapted from the method of Shepherd & Dailey (Anal Biochem. 2005 344(1) 115-121). The assay was performed in black 384 well plates with a clear bottom and the total volume of the reaction mixture was 91 ul. The final assay mixture contained 100 mM K2HPO4 pH7.2, 1 mM Na2EDTA, 5 mM DTT, 20% glycerol (v/v), 0.05% Tween 20 (v/v), 1.1% DMSO (v/v), 1 uM protoporphyrinogen IX and 1.5 nM enzyme. Compounds were dissolved in DMSO at 1 mM and a 4-fold serial dilution carried out to give 8 rates. 1 ul was added to the assay mixture. This gave final compound concentrations of 11, 2.7, 0.69, 0.17, 0.04, 0.01, 0.002, 0.0007 uM. Enzyme and inhibitor were preincubated for 5 minutes prior to starting the reaction with the addition of the substrate. […] IC50s were calculated using GraphPad Prism 7.05 nonlinear regression (Table 6). Each compound was tested in duplicate.

Test [2] deals with T2, His-TEV-AtPP01 ΔcTP L479M (SEQ ID NO: 371) (Arabidopsis thaliana, UniProt P55826, L479M).
T2 construct: with cTPs removed; made in house; host or cells: E. coli BL21 (DE3), His GraviTrap, partially purified
T2 sequence (P55826 with tags, fused parts or gaps L479M): T1 sequence (P55826 with tags, fused parts or gaps) with L464M
As to the kind of experiment: activity rate of PPO variant in in vitro assay. In kind it is biochemical. As to conditions: role: substrate; 1 uM protoporphyrinogen IX; no inhibitor.
Source text: as §1, §2

Changes are numbered by the printed parent chain.

For `C=Cc1c2[nH]c(c1C)Cc1[nH]c(c(CCC(=O)O)c1C)Cc1[nH]c(c(C)c1CCC(=O)O)Cc1[nH]c(c(C)c1C=C)C2` [protoporphyrinogen IX], the Rate is given as 5.1 rfu second^−1 pmole^−1 in test [1] and 9.9 rfu second^−1 pmole^−1 in test [2].
